Test results reported in US11970576B2, “Beta-peptido sugar-copolymer” (NANYANG TECHNOLOGICAL UNIVERSITY, priority 2017, dated 2024).
Converted amounts (≈) assume the structure as drawn. Where a SMILES comes first, the peptide text is derived from it.

Key:
[1] = system: methicillin-resistant S. aureus (BAA-40); type: cell-based
Procedure: (§1) Antimicrobial activity of block-like copolymers PDGu(x)-b-PBLK(y) against a panel of bacteria including both Gram-positive (S. aureus and B. subtilis) and Gram-negative (E. coli) in terms of minimal inhibition concentration (MIC) were tested. […] The activity was decreased with the increase of sugar ratio. This is reasonable when considering the killing domains became less.

E. coli (ATCC 8739) = type: cell-based
Procedure: as §1

S. aureus (ATCC 29213) = type: cell-based
Procedure: as §1

human red blood cells = experiment: Erythrocyte compatibility assay (hemolysis)
Procedure: Toxicity towards mammalian cells was another vital factor for bio-applications. […] Erythrocyte compatibility assay calculating the lysis of human red blood cells (HC10, concentration of polymers causing 10% human red blood cells lysed) was performed to characterize the in vitro biocompatibility.

MRSA USA300 = experiment: In vivo murine excision wound model; parameters: species or system Staphylococcus aureus
Description: Staphylococcus aureus is the most common cause for skin and soft tissue infections (SSTIs). Among those, up to three quarter are caused by community-associated MRSA (CA-MRSA). MRSA USA300 is a significant CA-MRSA pathogen in the US. According to Centers for Disease Control and Prevention of US, 212 out of 218 MRSA isolates were type USA300. To further test the in vivo efficacy of PDGu(10)-b-PBLK(10) against the clinically significant pathogen MRSA USA300, a mice wound excision model was adopted using 8 weeks female C57BL6 mice. […] This could be attributed to the excellent antibacterial efficacy of the β-peptido sugar-copolymer in vivo.
The in vivo efficacy of PDGu(10)-b-PBLK(10) was further tested against MRSA USA 300 with a murine excision wound model using two infection durations with treatments applied either 4 hour or 24 hour post infection. For treatment applied 4 hour post infection, the β-peptido sugar-copolymer achieves a log reduction of 4.1 (FIG. 8a), which is slightly better than vancomycin, which has a log reduction of 3.7. […] In contrast, vancomycin treatment only achieves 2.0 log reduction of the bacteria burden at the wound site (p≤0.01). The excellent in vivo antibacterial efficacy of PDGu(10)-b-PBLK(10) may be correlated to its outstanding in vitro killing kinetics and anti-biofilm bacteria property.
Female C57BL6 mice (Invivos, Singapore) aged 8 weeks were used for excision wound model to evaluate in vivo antimicrobial efficacy of the β-peptido sugar-copolymer. All mice were housed on a 12 hour light-dark cycle at room temperature for one week prior to the experiment. Mice (n=7 per group) were anesthetized using isoflurane and hair from the back was removed with a shaver and sterile scalpel blade. The shaved area was further sterilized using 70% ethanol and a 5 mm diameter excision wound was created using a biopsy punch. In t=4 hour post infection model, 2.5 μL MRSA USA300 in PBS suspension (5×10^5 CFU/mL) was added to wound site and covered by Tegaderm (3M™) to protect from contamination. […]

CC[C@H](C)[C@H](NC(=O)[C@H](CCCCN)NC(=O)[C@H](CCC(=O)O)NC(=O)[C@H](CCCCN)NC(=O)[C@H](CO)NC(=O)[C@H](CCCCN)NC(=O)[C@H](CCCNC(=N)N)NC(=O)[C@H](Cc1ccccc1)NC(=O)[C@H](Cc1ccccc1)NC(=O)[C@H](CC(=O)O)NC(=O)CNC(=O)[C@H](CC(C)C)NC(=O)[C@@H](N)CC(C)C)C(=O)NCC(=O)N[C@@H](CCCCN)C(=O)N[C@@H](CCC(=O)O)C(=O)N[C@@H](Cc1ccccc1)C(=O)N[C@@H](CCCCN)C(=O)N[C@@H](CCCNC(=N)N)C(=O)N[C@H](C(=O)N[C@H](C(=O)N[C@@H](CCC(N)=O)C(=O)N[C@@H](CCCNC(=N)N)C(=O)N[C@H](C(=O)N[C@@H](CCCCN)C(=O)N[C@@H](CC(=O)O)C(=O)N[C@@H](Cc1ccccc1)C(=O)N[C@@H](CC(C)C)C(=O)N[C@@H](CCCNC(=N)N)C(=O)N[C@@H](CC(N)=O)C(=O)N[C@@H](CC(C)C)C(=O)N[C@H](C(=O)N1CCC[C@H]1C(=O)N[C@@H](CCCNC(=N)N)C(=O)N[C@H](C(=O)N[C@@H](CCC(=O)O)C(=O)N[C@@H](CO)C(=O)O)[C@@H](C)O)C(C)C)[C@@H](C)CC)C(C)C)[C@@H](C)CC [LL37]
MIC MRSA [1]: >512 µg/mL

CC[C@H](C)[C@H](NC(=O)CN)C(=O)NCC(=O)N[C@@H](CCCCN)C(=O)N[C@@H](Cc1ccccc1)C(=O)N[C@@H](CC(C)C)C(=O)N[C@@H](Cc1c[nH]cn1)C(=O)N[C@@H](CO)C(=O)N[C@@H](C)C(=O)N[C@@H](CCCCN)C(=O)N[C@@H](CCCCN)C(=O)N[C@@H](Cc1ccccc1)C(=O)NCC(=O)N[C@@H](CCCCN)C(=O)N[C@@H](C)C(=O)N[C@@H](Cc1ccccc1)C(=O)N[C@H](C(=O)NCC(=O)N[C@@H](CCC(=O)O)C(=O)N[C@H](C(=O)N[C@@H](CCSC)C(=O)N[C@@H](CC(N)=O)C(=O)N[C@@H](CO)C(=O)O)[C@@H](C)CC)C(C)C [Magainin 2] (H-GIGKFLHSAKKFGKAFVGEIMNS-OH)
MIC E. coli (E. coli (ATCC 8739)): 64 µg/mL (≈ 25.9 µM) | MIC SA 29213 (S. aureus (ATCC 29213)): >512 µg/mL | MIC MRSA [1]: >512 µg/mL | HC10 RBC (concentration causing 10% human red blood cells lysed) (human red blood cells): >500 µg/mL

CC[C@H](C)[C@H](NC(=O)CN)C(=O)NCC(=O)N[C@@H](C)C(=O)N[C@H](C(=O)N[C@@H](CC(C)C)C(=O)N[C@@H](CCCCN)C(=O)N[C@H](C(=O)N[C@@H](CC(C)C)C(=O)N[C@H](C(=O)N[C@H](C(=O)NCC(=O)N[C@@H](CC(C)C)C(=O)N1CCC[C@H]1C(=O)N[C@@H](C)C(=O)N[C@@H](CC(C)C)C(=O)N[C@H](C(=O)N[C@@H](CO)C(=O)N[C@@H](Cc1c[nH]c2ccccc12)C(=O)N[C@H](C(=O)N[C@@H](CCCCN)C(=O)N[C@@H](CCCNC(=N)N)C(=O)N[C@@H](CCCCN)C(=O)N[C@@H](CCCNC(=N)N)C(=O)N[C@@H](CCC(N)=O)C(=O)N[C@@H](CCC(N)=O)C(N)=O)[C@@H](C)CC)[C@@H](C)CC)[C@@H](C)O)[C@@H](C)O)C(C)C)C(C)C [Melittin]
HC10 RBC (concentration causing 10% human red blood cells lysed) (human red blood cells): 8 µg/mL

CN[C@H](CC(C)C)C(=O)N[C@H]1C(=O)N[C@@H](CC(N)=O)C(=O)N[C@H]2C(=O)N[C@H]3C(=O)N[C@H](C(=O)N[C@H](C(=O)O)c4cc(O)cc(O)c4-c4cc3ccc4O)[C@H](O)c3ccc(c(Cl)c3)Oc3cc2cc(c3O[C@@H]2O[C@H](CO)[C@@H](O)[C@H](O)[C@H]2O[C@H]2C[C@](C)(N)[C@H](O)[C@H](C)O2)Oc2ccc(cc2Cl)[C@H]1O [vancomycin]
in vivo activity compared with the β-peptido sugar-copolymer (MRSA USA300; mice wound excision model, MRSA USA300): does not show superior activity | log reduction of MRSA USA300 (MRSA USA300; treatment applied 4 hour post infection, single dose 2.5 mg/kg (FIG. 8a)): 3.7 log | log reduction of total bacteria count (MRSA USA300; treatment initiated 24 hour post infection, three times with 4-hour interval, 2.5 mg/kg (FIG. 8b)): 2.0 log

Polymyxin B
MIC E. coli (E. coli (ATCC 8739)): 2 µg/mL | MIC SA 29213 (S. aureus (ATCC 29213)): 32 µg/mL | MIC MRSA [1]: 64 µg/mL | HC10 RBC (concentration causing 10% human red blood cells lysed) (human red blood cells): >2500 µg/mL
